Here are results for five compounds from patent publication US7919459B2, “Use of C5a receptor antagonist in the treatment of fibrosis” (Promics Pty Limited, priority 2002, dated 2011).

Experiment [1] concerns bleomycin-instilled male Wistar rats. Kind of experiment: Picro Sirius Red (PR) staining for collagen in lung, bleomycin-induced pulmonary fibrosis. The class given is in vivo, rat. The following applies: 18 days after bleomycin, individual rats, n = 3-4. On the procedure:
(§1) The data was analysed using the program “Sion Image”.

The test system is the same in experiment [2]. Kind of experiment: Hydroxyproline assay of lung, bleomycin-induced pulmonary fibrosis. The following applies: 18 days after bleomycin instillation. Format: in vivo, rat. The procedure: as §1
Hydroxyproline assay was performed by the method of Christensen et al 1 (2000). Lung tissue was excised, trimmed free of surrounding conducting airways, and homogenized in 2 mls saline. A 1 ml aliquot of lung homogenate was hydrolysed in 6N HCl (0.5 ml of homogenate and 0.5 ml of 12N HCl) at 110° C. for 12 hours; 50 μl aliquots were added to 1 ml of 14% chloramine T, 10% n-propanol, and 0.5M sodium acetate, pH 6.0. After 20 min at 22° C., 1 ml of Ehrlich's solution (1M p-dimethylaminobenzaldehyde in 70% n-propanol and 20% perchloric acid) was added and allowed to incubate at 65° C. for 15 min. Absorbance was measured at 550 nm, and the amount of hydroxyproline was determined against a standard curve generated with the use of known concentrations of reagent-grade hydroxyproline.

Experiment [3] shares this test system. In words: Bleomycin-induced pulmonary fibrosis in rats: lung and body weight, histology, collagen deposition. The following applies: for collagen deposition in lung: acute lung inflammation; for Body weight / Left lung weight / Ratio (lung weight to body weight): 7-9 days after intra-tracheal bleomycin, PMX53 10 mg/kg p.o. daily.
Method: Male Wistar rats, 6 weeks of age, were used. The rats were divided into 5 groups:
Group 1: bleomycin instillation only (n=9)
Group 2: saline instillation only (n=3)
Group 5: Untreated rats maintained in the same environment as the other groups (n=3).
Drug-treated rats were given drug for 3 days before bleomycin administration.
One intra-tracheal instillation of bleomycin at a dose of 0.5 mg/100 g (0.7 U/100 g) in 200 μl of saline was performed on Day 1, as described by Taylor et al., (2002). Rats were anaesthetized by inhalation of 5% or less halothane via a vaporizer. After a local spray of Xylocalne to prevent airway spasm, the rats were intubated and a slow injection of bleomycin or sline control was completed. The rats were then rotated gently for about 1-2 minutes to allow the solution to diffuse evenly into both lungs (Christensen et al 2000). Rats were kept in the fume cupboard until totally recovered, and then monitored for up to 18 days. Body weight, food and water intake, and respiration were monitored daily.
Respiration was elevated as follows: Score 0, normal respiration; Score 1, increased rate of breathing; and Score 2, mouth open respiration. Rats were euthanased before the end of the experimental period, if they consistently lost more than 10% bodyweight for 48 hours, had Score 2 respiration or had Score 1 respiration for 48 hours.
At the end of this period the rats were killed by exsanguination under anaesthesia, so that the lungs were clear of blood. For each rat, the left lung was immediately frozen in liquid nitrogen and stored at −20° C. for quantitative collagen analysis using hydroxyproline assay. The right lung was fully inflated and fixed with 10% formulated formalin by airway gravity fixation at a pressure of 30 cm water for 1 minute. Haematoxylin and eosin (H&E) and Picro Sirius Red (PR) staining for collagen were performed to assess collagen deposition in the lung. For quantitation of collagen stained with PR, polarized light images were converted to grey scale, and the total number of white pixels (specific for collagen) per image was determined as a percentage of the total pixel area. The procedure was applied to a total of four fields in the alveolar area and two fields in the peribronchial area and blood vessels per sample (Wang et al, 2000). The largest lobe of the right lung (from 4 lobes) in each rat was chosen. The data was analysed using the program “Sion Image”.
Data were compiled as the means±SE in the study. Tests of significance were obtained by ANOVA followed by Student-Newman-Keuls post analysis.
In experiment [4] the test system is streptozotocin-induced diabetes in rats. The following applies: streptozotocin-induced diabetes in rats (Miric G, et al., 2001); cited from earlier work.
Experiment [5] has as its system L-NAME-treated male Wistar rats. In words: Collagen distribution and inflammatory cells in heart and kidney sections (picrosirius red image analysis), L-NAME rats. The class given is in vivo, rat. The procedure:
Collagen deposition was measured by image analysis using laser confocal microscopy of picrosirius red-stained cardiac slices, as described below. […] The stained sections were analyzed with an Image Pro plus analysis program using an Olympus BH2 microscope, with results expressed as a percentage of red area in each screen. At least 4 areas were examine in each heart.

Experiment [6] has the same test system. Kind of experiment: Echocardiographic analysis of cardiac function, L-NAME rats. The class given is in vivo, rat. The procedure:
After 4 weeks of L-NAME treatment, heart function was determined in vivo by echocardiography and in vitro using the isolated Langendorff heart preparation described below. Collagen deposition was measured by image analysis using laser confocal microscopy of picrosirius red-stained cardiac slices, as described below.
Cardiac function was estimated in vivo using echocardiography, using conventional methods.

The test system is the same in experiment [7]. In words: L-NAME-induced hypertension/cardiac fibrosis in rats: intake, growth, tail-cuff blood pressure, organ weights. Format: in vivo, rat. The procedure: Male Wistar rats (8 weeks old) were obtained from the Central Animal Breeding House of The University of Queensland.
This agent was administered at a dosage of 1 mg/kg/day orally for 4 days before rats were additionally treated with nitro-L-arginine methyl ester (L-NAME) for 4 weeks, i.e. a total duration of treatment of antagonist of 32 days. L-NAME administration produces hypertension and cardiac remodelling as a result of inhibition of the production of nitric oxide (NO).
L-NAME was administered at a concentration of 400 mg/l in the drinking water for 4 weeks to give a mean daily intake of 18.7±0.4 mg L-NAME (41.4±0.8 mg/kg mean body weight). Body weight and food and water intakes were measured daily.
Systolic blood pressure was measured in selected unanaesthetised rats, using a tail-cuff method.

For experiment [8] the test system is unchanged. In words: Isolated Langendorff heart preparation (diastolic stiffness), L-NAME rats. Format: in vivo, rat. The procedure: The Langendorff isolated heart preparation was used to determine the diastolic stiffness of the left ventricles ex vivo. […] To assess myocardial stiffness in isolated Langendorff hearts, stress (σ, dyne/cm2) and tangent elastic modulus (E, dyne/cm2) for the […] equator of the left ventricle were calculated by assuming spherical geometry of the ventricle and considering the […] equatorial region as representative of the remaining myocardium: […] Myocardial diastolic stiffness is calculated as the diastolic stiffness constant (k, dimensionless), the slope of the linear relation between E and σ (Mirsky and […], 1973). To assess contractile function, maximal +dP/dt was calculated at a diastolic pressure of 5 mmHg. […] The negative log EC50 of the increase in either force of contraction in mN or rate of contraction in beats/min was determined from the concentration giving half-maximal responses in individual concentration-response curves. Renal function results were corrected for kidney wet weight measured at the end of the experiment.

Setting [9] is: L-NAME rats + PMX53 1 mg/kg/day orally.
[10] abbreviates: L-NAME rats, echocardiographic M-mode.

“And” between values parts separate entries of the source, which are not always exact repeats. Identical values can stand only once.

As for `CC(=O)N[C@@H](Cc1ccccc1)C(=O)N[C@H]1CCCNC(=O)[C@H](CCCNC(=N)N)NC(=O)[C@H](Cc2c[nH]c3ccccc23)NC(=O)[C@@H](CC2CCCCC2)NC(=O)[C@@H]2CCCN2C1=O` [PMX53, AcF-[OPdChaWR]], the PR staining in experiment [1] (listed as Bleo + PMX53) is 1.43 % of the total pixel area and 0.06 % of the total pixel area and 0.01 % of the total pixel area and 0.77 % of the total pixel area. Also, the “hydroxyproline levels in the rat lungs” value in experiment [2] is “significantly reduced”. Besides, the “lung histology (patchy lesions), treated versus non-treated” value in experiment [3] (7-9 days after bleomycin, H&E, n=4 per group) is “no significant difference”. The “collagen deposition in lung” value in experiment [3] (7-9 days after bleomycin) is recorded as “no significant difference”. For the same compound, in experiment [3] (acute stage), the “toxic lung inflammation induced by bleomycin” value is reported as “failure”.

Consider `Cc1ccc(=O)n(-c2ccccc2)c1` [pirfenidone, 5-methyl-1-phenyl-2-(1H)-pyridone], for which the “cardiac fibrosis and increase in cardiac stiffness” value in experiment [4] is “can prevent and partially reverse”.

Take `CC(=O)S[C@@H]1CC2=CC(=O)CC[C@]2(C)[C@H]2CC[C@@]3(C)[C@@H](CC[C@@]34CCC(=O)O4)[C@H]12` [spironolactone]: the “cardiac fibrosis and increase in cardiac stiffness” value in experiment [4] was “can prevent and partially reverse”.

For AcF-[OPdChaWR] [PMX53], the “glomerular collagen concentrations in the kidneys” value in experiment [5] (L-NAME rats) is given as “normalized”. Also, in experiment [5] (setting [9]), the “collagen deposition restricted to % of L-NAME only, kidney interstitium” value was determined as 30%; the “collagen deposition restricted to % of L-NAME only, right ventricle interstitial” value stood at 44%; the “collagen deposition restricted to % of L-NAME only, right ventricle perivascular” value is recorded as 37%; the “collagen increase as % of the increase observed in rats treated with L-NAME only, left ventricular interstitial” value came to 23%. In addition, the “collagen increase as % of the increase observed in rats treated with L-NAME only, left ventricular perivascular” value in experiment [5] (setting [9]) is 43%. The “inflammatory cell infiltration into left or right ventricles” value in experiment [5] (following L-NAME treatment) is on record as “totally prevented”. In experiment [6] (L-NAME rats), the “E/A ratio (early to atrial mitral valve inflow rates)” value is given as “significantly normalised”, the cardiac output entry is “significantly normalised” and the diastolic volume entry was “significantly normalised”. In experiment [6] (setting [10]), the “left ventricular internal diameter in diastole” value was “normalised” and the “left ventricular wall thickness in diastole” value was “normalised”. The “any parameter measured by echocardiographic analysis” value in experiment [6] (control rats) was “did not significantly alter”. In experiment [7] (L-NAME + antagonist versus L-NAME only), the “increase in systolic blood pressure of L-NAME rats” value is given as 16 mmHg. For the same compound, the “left ventricular wet weight” value in experiment [7] (L-NAME rats) is “increased”. For the same compound, the blood pressure result in experiment [7] (control rats) is on record as “non-significant increase”. For the same compound, the systolic blood pressure in experiment [7] (tail-cuff, unanaesthetised rats, day 32, L-NAME rats with or without PMX53 1 mg/kg/day orally) is listed as 176±3 mmHg. Also, in experiment [8] (isolated heart), the “developed pressure and contractility” value was “without altering”. In addition, the diastolic stiffness constant entry in experiment [8] (left ventricle ex vivo) is “prevented”. In experiment [3], the Body weight was 228 + 7.583 g, the Left lung weight amounted to 0.974 ± 0.132 g and the “Ratio (lung weight to body weight)” value is given as 4.25 ± 1.07 ×10^−3.

As for Bleomycin [reference compound], the PR staining in experiment [1] is 0.01 % of the total pixel area and 0.21 % of the total pixel area and 0.78 % of the total pixel area and 1.73 % of the total pixel area. Besides, the “hydroxyproline levels in the rat lungs” value in experiment [2] is “significantly increased”. Further, in experiment [3], the Body weight is on record as 226 + 8.083 g, the Left lung weight amounted to 1.004 ± 0.04 g and the “Ratio (lung weight to body weight)” value is 4.47 ± 0.46 ×10^−3. The lung/body weight ratio entry in experiment [3] (18 days after bleomycin instillation) is given as “did not show a significant difference”. The “collagen deposition in lung” value in experiment [3] (7-9 days after bleomycin) was “significant increase”.
